# Tested on: Venturia inaequalis
# Test: Efficiency against scab, grafted apple plants in pots
# Assay type: in vivo
# Parameters: Efficiency (%) Leaves treated / Efficiency (%) All leaves / Efficiency (%) New leaves: concentration or dose not given beside the values
# Method: The test was carried out on grafted plants, in pots. Three species were used: ‘Reinette des Capucins’, ‘Jonagold’, and ‘Reinette de Waleffe’, grafted on M9 rootstock. The plants were grown under a plastic tunnel at different times, so that they were all at the same stage at the time of the trial: starting with Reinette de Waleffe, then 15 days later, Reinette des Capucins, then 1 week later, Jonagold.
# The plants were labelled with the variety and the method of treatment received before inoculation.
# The method of treatment, preparation of the inoculum, inoculation and observations are similar to those described in example 1.
# The plants were treated twice, successively, 10 days apart. The day following the second treatment, the last extended leaf ? F1 ? was identified.
# Two days after the second treatment, the pathogen (Venturia inaequalis) was inoculated using a dose of 1.5×10^5 conidia/ml, directly in the moist room. Inoculation is followed by a 48 hours incubation in moist room at 18° C., then the plants remained in the boxes with a temperature of 18°±2° C. and a relative humidity of 80±10%.
# The study was organised as follows:
# The OY2 yeast cell walls correspond to an acqueous suspension at 25 mg/l of the Springcell 8001 product from Biospringer SAS, (Maisons-Alfort), France), with 96% cell walls of dry matter content.
# The observations were made on the 21st day after the inoculation of the last 2 treated leaves (F2 and F1) and on the leaf newly formed after treatment (F0) for about 25 leaves per subject.
# An observation at 41 days after the treatment gave the following results.
# At this time, new leaves had extended: F-1 and F-2, and the disease progressed by natural contamination, without any re-inoculation.
# [1] = All varieties, 21st day after inoculation
# [2] = All varieties, 41 days after the treatment
# [3] = Capucins, 21st day after inoculation
# [4] = Capucins, 41 days after the treatment
# [5] = Jonagold, 21st day after inoculation
# [6] = Jonagold, 41 days after the treatment
# [7] = Waleffe, 21st day after inoculation
# [8] = Waleffe, 41 days after the treatment
smiles,measurement,setting,value
"CC(N)CC(=O)O (stereo not drawn) [baba, β-aminobutyric acid]",Efficiency (%) All leaves,[1],47.2%
same,Efficiency (%) F0,[1],27.0%
same,Efficiency (%) F1,[1],47.1%
same,Efficiency (%) F2,[1],67.6%
same,Efficiency (%) Leaves treated,[1],57.4%
same,Sporulant surface/leaf (%) F0,[1],13.0%
same,Sporulant surface/leaf (%) F1,[1],15.4%
same,Sporulant surface/leaf (%) F2,[1],9.6%
same,Efficiency (%) All leaves,[2],54.2%
same,Efficiency (%) New leaves,[2],40.1%
same,Efficiency (%) Treated leaves,[2],68.1%
same,Sporulant surface/leaf (%) F0,[2],31.0%
same,Sporulant surface/leaf (%) F1,[2],26.7%
same,Sporulant surface/leaf (%) F2,[2],10.0%
same,Sporulant surface/leaf (%) F-1,[2],28.2%
same,Sporulant surface/leaf (%) F-2,[2],8.6%
same,Efficiency (%) All leaves,[3],60.3%
same,Efficiency (%) F0,[3],45.3%
same,Efficiency (%) F1,[3],59.8%
same,Efficiency (%) F2,[3],75.8%
same,Efficiency (%) Leaves treated,[3],67.8%
same,Sporulant surface/leaf (%) F0,[3],4.3%
same,Sporulant surface/leaf (%) F1,[3],8.0%
same,Sporulant surface/leaf (%) F2,[3],4.2%
same,Efficiency (%) All leaves,[4],77.1%
same,Efficiency (%) New leaves,[4],55.5%
same,Efficiency (%) Treated leaves,[4],88.2%
same,Sporulant surface/leaf (%) F0,[4],14.07%
same,Sporulant surface/leaf (%) F1,[4],10.62%
same,Sporulant surface/leaf (%) F2,[4],4.00%
same,Sporulant surface/leaf (%) F-1,[4],9.95%
same,Sporulant surface/leaf (%) F-2,[4],4.00%
same,Efficiency (%) All leaves,[5],57.9%
same,Efficiency (%) F0,[5],38.0%
same,Efficiency (%) F1,[5],50.5%
same,Efficiency (%) F2,[5],85.1%
same,Efficiency (%) Leaves treated,[5],67.8%
same,Sporulant surface/leaf (%) F0,[5],13.9%
same,Sporulant surface/leaf (%) F1,[5],17.9%
same,Sporulant surface/leaf (%) F2,[5],6.0%
same,Efficiency (%) All leaves,[6],57.7%
same,Efficiency (%) New leaves,[6],49.0%
same,Efficiency (%) Treated leaves,[6],67.8%
same,Sporulant surface/leaf (%) F0,[6],37.79%
same,Sporulant surface/leaf (%) F1,[6],27.57%
same,Sporulant surface/leaf (%) F2,[6],10.57%
same,Sporulant surface/leaf (%) F-1,[6],29.57%
same,Sporulant surface/leaf (%) F-2,[6],3.43%
same,Efficiency (%) All leaves,[7],28.6%
same,Efficiency (%) F0,[7],10.3%
same,Efficiency (%) F1,[7],35.2%
same,Efficiency (%) F2,[7],40.3%
same,Efficiency (%) Leaves treated,[7],37.8%
same,Sporulant surface/leaf (%) F0,[7],20.9%
same,Sporulant surface/leaf (%) F1,[7],20.4%
same,Sporulant surface/leaf (%) F2,[7],18.6%
same,Efficiency (%) All leaves,[8],33.0%
same,Efficiency (%) New leaves,[8],24.0%
same,Efficiency (%) Treated leaves,[8],44.8%
same,Sporulant surface/leaf (%) F0,[8],41.05%
same,Sporulant surface/leaf (%) F1,[8],42.00%
same,Sporulant surface/leaf (%) F2,[8],15.55%
same,Sporulant surface/leaf (%) F-1,[8],45.16%
same,Sporulant surface/leaf (%) F-2,[8],18.42%

# From patent publication US8609084B2, “Protection of plants against their pathogenic agents” (Lesaffre et Compagnie, priority 2005, dated 2013)
